Values joined by “and” are separate entries in the source; they are usually repeats but may differ in a detail not shown here. Equal entries are not always repeated. Where two headings read alike, the source gives them in different places.
Tests used:
[1] = in vivo; cited from earlier work
[2] = system: M. tuberculosis Erdman in human macrophages (THP-1 cells); conditions: 20, 200, 2000 μM, CFU to day 5 (FIG. 5)
M. tuberculosis Erdman = assay: M. tuberculosis growth in broth culture; assay type: cell-based; conditions: for inhibition of M. tuberculosis growth in broth culture in comparison with MSO / inhibition of M. tuberculosis in broth culture relative to MSO at each of the three concentrations: 10, 100, 1000 μM; for inhibition of M. tuberculosis growth in broth culture in comparison with MSO: 6 weeks (FIG. 4); for inhibition of M. tuberculosis in broth culture relative to MSO at each of the three concentrations / inhibition of M. tuberculosis growth in broth culture: Example 7; for inhibition of M. tuberculosis growth in broth culture: 10, 100 or 1000 μM, 6 weeks
[3] = cited from earlier work; for metabolism: do not form the toxic products formed in vivo from MSO
[4] = α-Et-MSO: convulsions in a minority of mice vs MSO dose giving 100% of mice; cited from earlier work
[5] = From the text: Exemplary, non-limiting GS inhibitors of the present invention and their relevant properties are summarized below: [drawing 1]
[6] = doses that fully inhibit glutathione synthesis; cited from earlier work
[7] = system: M. tuberculosis Erdman strain; assay type: in vivo; conditions: for reduction of CFU in lung and spleen below the level obtained with MSO: from day 14
Remark: listed apart in the source

| SMILES | entry into the brain compared with MSO [1] | inhibition of M. tuberculosis growth in human macrophages [2] | inhibition of M. tuberculosis growth in broth culture in comparison with MSO (M. tuberculosis Erdman) | inhibition of M. tuberculosis in broth culture relative to MSO at each of the three concentrations (M. tuberculosis Erdman) | inhibition of M. tuberculosis growth in broth culture (M. tuberculosis Erdman) | metabolism [3] | Metabolized In Vivo [3] | dose that causes convulsions in mice, higher than MSO [4] | Estimated Dose of L Isomer that Induces Convulsions in Mice (Relative to MSO) ([5]; Table 1) | Estimated Dose of L Isomer that Induces Convulsions in Mice (Relative to MSO) ([5]; Table 3) | other results |
| --- | --- | --- | --- | --- | --- | --- | --- | --- | --- | --- | --- |
| CCC(N)(CCS(C)(=N)=O)C(=O)O (racemic) [α-Et-MSO, α-ethyl-DL-methionine-SR-sulfoximine] | do not enter the brain as readily as MSO | readily inhibited M. tuberculosis growth in human macrophages | as inhibitory to M. tuberculosis growth as MSO | as inhibitory or slightly more inhibitory than MSO | inhibited M. tuberculosis | resistant to metabolism | − | 16 fold | >16 | ≧16 |  |
| CC(N)(CCS(C)(=N)=O)C(=O)O (racemic) [α-Me-MSO, α-methyl-DL-methionine-SR-sulfoximine] | do not enter the brain as readily as MSO | readily inhibited M. tuberculosis growth in human macrophages | as inhibitory to M. tuberculosis growth as MSO | slightly less inhibitory than MSO | inhibited M. tuberculosis | resistant to metabolism | − | ~8 fold | 8 | 8 |  |
| CCCCS(=N)(=O)CCC(N)C(=O)O [BSO, D, L-Buthionine-SR-Sulfoximine] |  |  |  |  | did not |  |  |  |  |  | animals killed [6]: 100% |
| NNC(=O)c1ccncc1 [INH, isoniazid] |  |  |  |  |  |  |  |  |  |  | reduction of CFU in lung and spleen below the level obtained with MSO ([7]; INH 1 mg kg^−1 day^−1 oral): ~1.5 logs; reduction of CFU in lung and spleen below the level obtained with MSO ([7]; INH 4 mg kg^−1 day^−1 oral): ~2.5 logs; protection from weight loss ([7]; […], MSO 1.5, INH 1 or 4 mg kg^−1 day^−1): protected animals from weight loss |
| CS(=N)(=O)CC[C@H](N)C(=O)O (stereo partly drawn) [MSO, L-methionine-SR-sulfoximine] |  |  |  |  | inhibited M. tuberculosis |  |  |  | 1 | 1 | MTD in the presence of ascorbate relative to absence of ascorbate (guinea pig, in vivo): 4 fold; maximum tolerated dose for guinea pigs infected with M. tuberculosis (guinea pig, in vivo): 1.5 mg kg^−1 day^−; tolerability (guinea pig, in vivo): well-tolerated; fewer CFU of M. tuberculosis in lung and spleen than control animals ([7]; in vivo): approximately 1 log unit; protection from weight loss ([7]; in vivo): protected animals from weight loss; reduction of CFU of M. tuberculosis in lungs and spleen compared with control animals ([7]; in vivo): ~0.7 logs; reduction of bacterial counts in lung and spleen ([7]; in vivo): effective at reducing bacterial counts; survival of the 10 week observation period ([7]; in vivo): 100% and 80% and 60%; weight gain versus untreated controls ([7]; in vivo): gained significantly more weight than untreated controls; weight loss versus untreated controls ([7]; in vivo): protected from weight loss; reduction of CFU in lungs and spleen compared with untreated controls ([7]; in vivo, ip): 2.5 logs |
| O=C1O[C@H]([C@@H](O)CO)C(O)=C1O [ascorbate] |  |  |  |  |  |  |  |  |  |  | total dose well tolerated by guinea pigs (i.p., 9 mmoles kg^−1 day^−1 not well tolerated): 3 mmol/kg/day |

Source: patent US20060142251A1, “Anti-microbial agents derived from methionine sulfoximine analogues” (priority 2002, published 2006)
